These results are taken from patent US7863415B2 (The Regents of the University of California, priority 2004, dated 2011).

“Also recorded” adds a separate entry of the source. Read-outs that look alike come from different tables or passages of the source. Starred links: 1 amine or outer side, 2 acyl side, 3 side chain; linkers in the order of their positions; H or OH if unused. Non-standard residues stand in square brackets, D forms with d. Residues, ends and D or L forms follow the SMILES beside them. No end group written: not given here. X1 = N=C(N)NC(=O)c1nc(Cl)c(N(CC(=O)[*:2])[*:1])nc1N

The test system of series [1] is [Ca^2+]i in U87 glioma cells. Put plainly: [Ca2+]i in U87 glioma cells loaded with fura-2AM, quantitative fluorescent microscopy. The note with it: U87 glioma cells. In kind it is cell-based, human. On the procedure: Therefore, the levels of [Ca^2+]i in U87 glioma cells loaded with fura-2AM were measured using quantitative fluorescent microscopy. […] The ATP-dependent calcium regulatory mechanisms within U87 glioma cells containing fura-2 were then examined. […] ATP synthase operates in reverse when milimolar concentrations of calcium are stored by the mitochondrion (Nicholls, Bioenergetics, 3, Academic Press, London, 3rd edition (2002)).
Quantitative fluorescent microscopy of [Ca^2+]i levels. [Ca^2+]i levels can be measured in cells loaded with either fura-2A or fura-2FFAM under the conditions described above.

The subject of series [2] is glioma cells and primary astrocytes. Put plainly: Cell entry by confocal microscopy. In kind it is in vitro ADME.
Series [3] deals with U87 glioma cells. Put plainly: Glioma cell death, manual cell counts with trypan blue exclusion. The note with it: for Glioma Effect: cytotoxic concentration: glioma cells.
Series [4] deals with enkephalinase (endopeptidase 24.11). Put plainly: Enzyme digestion with enkephalinase, LC-MS/ESI. In kind it is in vitro ADME, porcine. Particulars: for Conclusion (Peptidase: Enkephalinase): 10 μM conjugate, 10 units enzyme, 25° C., pH 7.4, 24 h; for Cleavage by enkephalinase (release of compound 3a): 24 h incubation, LC-MS. On the procedure: (§1) Compound 3b is a C5am-Gly-peptide conjugate containing two D-amino acids, and compound 3c is a C5am-Gly-peptide conjugate coupled to a peptide to generate an analog of opioid peptides that cross the blood brain barrier (BBB). The resultant conjugates (compounds 3a-c) were tested for selective cleavage by the brain peptidase enkephalinase (neutral endopeptidase 24.11; Calbiochem) via incubation for 24 h in the presence or absence of the enzyme, and aliquots from the reaction solutions were then analyzed by LC-MS to identify the C5am-Gly conjugate (compound 3a), starting material, and enzymatic cleavage products (see, Scheme 3). As negative control experiments, the conjugates were analyzed following treatment with (1) bovine pancreatic trypsin (Calbiochem) or (2) the buffer solutions without enzymes.
(§2) Enzyme digestion. Endopeptidase 24.11 (neutral, porcine kidney) and trypsin (bovine pancreas) were purchased from CalBiochem (San Diego, Calif.) and used as received. Enzymatic cleavage experiments using endopeptidase 24.11 were conducted at 25° C. in a pH 7.4 Tris buffer (150 mM NaCl, 50 mM Tris, 0.1% Triton X-100) as recommended by the manufacturer (see also, Barnes et al., J. Neurochem., 64:1826-1832 (1995), Gafford et al., Biochemistry, 22:3265-3271 (1983)). Similarly, trypsin cleavage experiments were conducted at 25° C. in pH 7.4 Dulbecco's phosphate buffered saline (Gibco; Grand Island, N.Y.). The digestion reactions included 10 μM of the amiloride-peptide conjugate and 10 units of enzyme in 250 μL of buffer. Direct aliquots were analyzed by LC-MS/ESI following a 24 hour incubation period.
(§3) Enzyme Digestion Study. Compounds 3a-d were each incubated at 25° C. with 10 units of enkephalinase (endopeptidase 24.11) to determine their susceptibility towards enzymatic cleavage. Reaction aliquots were taken following a 24 hour incubation period and analyzed directly by LC-MS/ESI (Thermo Finnigan LCQ) for the presence of the starting material and the targeted cleavage product, compound 3a (C5am-Gly). […] Since there are no basic amino acid residues in compounds 3a-d, trypsin was employed as a negative control to ensure that any observed cleavage products could be ascribed only to endopeptidase-specific interactions (Jackson, Protein Science, 8:603-613 (1999)).

Series [5] concerns the target T1, trypsin (Bos taurus, UniProt P00760).
T1 construct: purchased CalBiochem (San Diego, Calif.); host or cells: bovine pancreas
T1 sequence (P00760 24-246): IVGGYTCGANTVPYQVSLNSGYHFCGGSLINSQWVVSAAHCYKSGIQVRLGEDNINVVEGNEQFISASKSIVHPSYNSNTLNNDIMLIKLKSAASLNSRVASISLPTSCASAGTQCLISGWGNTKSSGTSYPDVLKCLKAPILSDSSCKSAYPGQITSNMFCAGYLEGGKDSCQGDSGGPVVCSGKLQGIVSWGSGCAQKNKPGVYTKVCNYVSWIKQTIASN
Put plainly: Enzyme digestion with trypsin (negative control), LC-MS/ESI. It is filed as in vitro ADME, bovine. The note with it: for Conclusion (Peptidase: Trypsin): 10 μM conjugate, 10 units enzyme, 25° C., pH 7.4, 24 h. On the procedure: as §1, §2, §3

The target in series [6] is NHE1 (Homo sapiens, UniProt P19634). Put plainly: NHE1 inhibition: sodium-dependent pHi recovery in BCECF-loaded U87 glial cells after ammonium chloride pre-pulse. It is filed as cell-based. More on the design: Sodium-dependent proton extrusion in U87 glial cells and in primary astrocytes is mediated by the type 1 sodium proton exchanger (NHE1); endogenous in cells; host or cells: U87 human glioma cells. Here is the method:
Intracellular pH Measurements. U87 glial cells were grown on glass coverslips and incubated for 30 minutes at 37° C. with the pH-sensitive dye, 2′,7′-bis(2-carboxyethyl)-5(6)-carboxyfluorescein-AM (BCECF-AM; Molecular Probes, OR). Cells were rinsed with HEPES Ringer buffer twice and maintained at 37° C. for an additional 15 minutes to permit intracellular hydrolysis of the AM ester; trapping BCECF within the cells. Cells on coverslips were placed in a Hitachi F2000 fluorescent spectrophotometer and excited at 440 and 507 nm with fluorescent emissions recorded at 535 nm (Hegde et al., J. Pharmacol. Exp. Ther., 310:67-74 (2004)).
NHE inhibition by compounds 3a and 3c was evaluated using intracellular pH (pHi) measurements in the U87 human glial cell line (Hegde et al., supra). Cells loaded with BCECF were then acidified using the ammonium chloride pre-pulse method (Roos et al., Physiol Rev, 61:296-434 (1981)). The subsequent sodium-dependent recovery of pHi by these cells in the absence of bicarbonate was monitored using a spectrofluorometer. Sodium-dependent proton extrusion in U87 glial cells and in primary astrocytes is mediated by the type 1 sodium proton exchanger (NHE1) (McLean et al., supra; Hegde et al., supra) and was monitored in the presence or absence of compound 3a or 3c.
IC50 drug determinations for NHE1. This method utilizes spectrofluorometric measurements of [H^+]i as described above. The ammonium chloride prepulse method can be used to acidify cells in the presence of HR that is sodium-substituted with NMDG. Perfusion of the acidified cells with HR that contains sodium causes activation of NHE1 that is inhibited in a concentration-dependent fashion as described in McLean et al., supra.

The test system of series [7] is U87 cells. Put plainly: Intracellular translocation into U87 cells by fluorescence microscopy. Particulars: 50 μM; 90 and 180 min; 380 nm excitation, 510 nm emission. From the text: Fluorescence Microscopy. […] Excitation light was provided by a xenon arc lamp coupled to the Polychrome IV scanning monochromator (Till Photonics; Grafelfing, Germany) that alternately excites with different wavelengths. Excitation light was delivered by fiber optics to cells through the epifluorescence port of a Nikon E600 microscope coupled to a Nikon Fluor 60× water immersion lens. The detector was an Orca II-ER CCD digital camera (Hamamatsu USA; Bridgewater, N.J.), which is controlled by C-Imaging Simple PCI software (Compix; Cranberry Township, Pa.).
Intracellular emission intensities were collected in regions of interest (ROI) from an average of 4-8 cells/field using Simple PCI imaging software. […] Images were captured as TIFF files (C-imaging Simple PCI software), and light and fluorescent images of the same field were imported in Photoshop 6.0 and vector graphics added using Illustrator 9.0.1 (Adobe; San Jose, Calif.).

Series [8] relates to U87 glioma cells. Put plainly: Glioma cell proliferation, manual cell counts with trypan blue. It is filed as cell-based, human. Particulars: glioma cells. Here is the method: C(5)-amiloride glycine conjugate (C5am-Gly) inhibits NHE1 in U87 glioma cells and is antiproliferative. […] The inhibitory activity of C5am-Gly against NCX was tested and a systematic log dose screen of C5am-Gly against a panel of glioma cells and primary astrocytes was performed.
Manual cell counts with dye exclusion assays. Identical concentrations of glioma cells can be plated on 60 mm dishes and grown until 50% confluent. Following drug treatments, media containing floating cells can be collected in suspension. Adherent cells can be rinsed in calcium- and magnesium-free phosphate-buffered saline (PBS-CMF) and removed by incubation with 0.25% v/v trypsin for 5 minutes (37° C.). Cell suspensions can be combined with the floating fraction and centrifuged at 350×g for 5 minutes. The resulting pellet (one per dish) can be resuspended in equal volumes of PBS-CMF with 0.4% trypan blue and/or 500 nM Sytox Green. 10 μL aliquots of the suspension can be plated on a hemocytometer, and cells can be counted 5 minutes after staining. Simultaneous staining of cells with trypan (TB) and Sytox Green (SG) can be visualized by switching between visible light and fluorescein green.

The subject of series [9] is NHE1 and NCX. Particulars: NHE1 and NCX inhibitors from the literature; cited from earlier work.

Sequence of NHE1 (P19634 whole entry): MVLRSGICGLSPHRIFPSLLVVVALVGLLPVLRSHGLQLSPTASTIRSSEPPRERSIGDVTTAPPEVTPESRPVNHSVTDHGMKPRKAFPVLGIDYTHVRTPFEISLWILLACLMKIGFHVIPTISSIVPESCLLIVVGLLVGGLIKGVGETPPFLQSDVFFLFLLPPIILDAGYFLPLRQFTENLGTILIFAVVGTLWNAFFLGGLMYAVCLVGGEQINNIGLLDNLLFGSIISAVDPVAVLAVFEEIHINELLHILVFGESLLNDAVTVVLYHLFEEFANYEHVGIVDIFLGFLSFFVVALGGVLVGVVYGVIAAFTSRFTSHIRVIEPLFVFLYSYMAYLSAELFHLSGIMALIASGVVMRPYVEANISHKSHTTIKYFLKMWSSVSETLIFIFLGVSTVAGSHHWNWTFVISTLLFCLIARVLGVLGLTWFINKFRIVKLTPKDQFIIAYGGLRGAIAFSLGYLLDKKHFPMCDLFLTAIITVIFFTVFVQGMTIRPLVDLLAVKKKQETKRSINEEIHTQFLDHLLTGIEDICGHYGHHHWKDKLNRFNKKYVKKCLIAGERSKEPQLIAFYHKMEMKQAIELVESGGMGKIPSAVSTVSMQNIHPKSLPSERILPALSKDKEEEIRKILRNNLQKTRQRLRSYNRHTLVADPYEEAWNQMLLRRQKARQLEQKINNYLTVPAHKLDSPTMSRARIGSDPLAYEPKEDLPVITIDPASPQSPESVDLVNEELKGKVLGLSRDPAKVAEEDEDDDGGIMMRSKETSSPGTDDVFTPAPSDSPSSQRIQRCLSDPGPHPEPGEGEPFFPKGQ

As to `N=C(NC(=O)CN)NC(=O)c1nc(Cl)c(N)nc1N` [C2am-Gly], in [1], the “Effect on [Ca2+]i” value was “increased”. The “Cell entry by confocal microscopy” value in [2] is reported as “not visualized entering”. Besides, in [3], the “Potency of killing glioma cells relative to amiloride” value is recorded as “greater than 50 times” and the “Glioma Effect: cytotoxic concentration” value is “≦10 μM cytotoxic”. The “Concentration that killed U87 glioma cells” value in [3] (U87 glioma cells, C2am-Gly within 24 h) was not above 10 µM.

Take `CC(C)C[C@H](NC(=O)[C@H](Cc1ccccc1)NC(=O)CNC(=O)CNC(=O)CNC(=O)CNc1nc(N)c(C(=O)NC(=N)N)nc1Cl)C(=O)O` [Compound 3c, C5am-Gly-Gly-Gly-Gly-Phe-Leu-OH] (H-[X1]GGGFL-OH): in [4], the “Conclusion (Peptidase: Enkephalinase)” value is “Enkephalinase-mediated” and the “Cleavage by enkephalinase (release of compound 3a)” value is reported as “selectively cleaved; also recorded: released compound 3a; also recorded: complete digestion”. In addition, the “Conclusion (Peptidase: Trypsin)” value in series [5] was “Trypsin-mediated cleavage”. The “Cleavage by trypsin (release of compound 3a)” value in series [5] (24 h incubation, LC-MS) was “did not generate C5am-Gly; also recorded: did not release compound 3a”. For the same molecule, in series [6] (U87 glial cells, sodium-dependent pHi recovery without bicarbonate, read-out: IC50 (μM) +/− SD (NHE inhibition)), the IC50 is more than 100 µM.

Consider `CCN(c1nc(N)c(C(=O)NC(=N)N)nc1Cl)C(C)C` [EIPA, ethylisopropylamiloride], for which the “Intracellular accumulation in U87 cells” value in [7] is “intracellular accumulation; also recorded: rapid cell permeation”. The “Cell entry by confocal microscopy” value in [2] (C2am-Gly after 90-240 minutes) is listed as “Rapid cell permeation”. In addition, the “Reversal of NHE1 inhibition after removal of compound” value in series [6] (U87 cells) was “slow and incomplete recovery”.

`CS(=O)(=O)O.CS(=O)(=O)c1cc(C(=O)N=C(N)N)ccc1N1CCCCC1` [HOE694]: the “Effect on [Ca2+]i” value in series [1] was “did not alter”.

As to `C[C@H](CCC(=O)O)C[C@H](C)C[C@H](C)C(=O)/C=C(\O)[C@H](C)C[C@H](C)C/C=C/[C@@H](C)[C@@H](O)[C@@H](C)[C@@H](O)C[C@@H]1CC[C@@](C)([C@H]2CC[C@@](C)([C@@H](C)O)O2)O1` [Ionomycin], the “Time to kill glioma cells” value in [3] lay within 90 to 180 min.

Take `N=C(N)SCCc1ccc(OCc2ccc([N+](=O)[O-])cc2)cc1` [KB-R7943]: the “Glioma Effect: antiproliferative concentration” value in [8] is recorded as “not antiproliferative”. Further, the “Effect of pretreatment on [Ca2+]i after calcium release from mitochondrial stores” value in series [1] (FCCP or oligomycin) is “did not cause a persistent increase”. Further, the “Rel. Activity” value in [9] is on record as “NCX > NHE (blocks Ca^2+ influx)”. Also, the “Glioma Effect: cytotoxic concentration” value in [3] was “not cytotoxic”. In series [3] (manual cell counts, trypan blue cell exclusion assay), the “Cytotoxicity to glioma cells” value is on record as “non-toxic”.

Regarding `CCOc1ccc(Oc2ccc(OCc3cc(F)ccc3F)cc2)c(N)c1` [SEA0400], the “Rel. Activity” value in [9] is recorded as “NCX only no NHE activity (Ca^2+ influx mode > Ca^2+ efflux mode)”.

Turning to `CC[C@H]1/C=C/C=C/C[C@@H](C)[C@H](O)[C@@](C)(O)C(=O)[C@@H](C)[C@H](O)[C@@H](C)C(=O)[C@@H](C)[C@H](O)[C@@H](C)/C=C/C(=O)O[C@@H]2[C@H](C)[C@H](CC1)O[C@]1(CC[C@H](C)[C@H](C[C@@H](C)O)O1)[C@H]2C` [oligomycin], in series [1] (F0F1ATPase inhibition), the “[Ca2+]i transients” value is listed as more than 800 nM.

For `C[C@@H]1O[C@@H](O[C@H]2C[C@@H](O)[C@]3(CO)[C@H]4[C@H](O)C[C@]5(C)[C@@H](C6=CC(=O)OC6)CC[C@]5(O)[C@@H]4CC[C@]3(O)C2)[C@H](O)[C@H](O)[C@H]1O` [oubain], the “Effect on [Ca2+]i” value in series [1] was “did not demonstrably alter”.

For the molecule `C/C=C(/C)C(=O)O[C@H]1C(C)=C2[C@H]([C@@H]1OC(=O)CCCCCCC)[C@@](C)(OC(C)=O)C[C@H](OC(=O)CCC)[C@@]1(O)[C@H]2OC(=O)[C@@]1(C)O` [thapsigargin], the “Effect on [Ca2+]i” value in [1] is “modest and transient increase”.

For “Compound 3d: C(5)-amiloride peptide conjugate prepared according to Scheme 1 with peptide sequence Gly-Gly-Gly-Phe-Leu (GGGFL; not fully specified (N-terminus); printed as Gly-Gly-Gly-Phe-Leu; also: C(5)-amiloride conjugate)”, in series [4], the “Conclusion (Peptidase: Enkephalinase)” value is “Enkephalinase resistant” and the “Cleavage by enkephalinase (release of compound 3a)” value is given as “did not liberate compound 3a”. Also, the “Conclusion (Peptidase: Trypsin)” value in series [5] is recorded as “Trypsin resistant”.
